In patent publication US20260347346A1, “SUBSTITUTED 6-(PYRIMIDIN-4-YL)QUINOLINE COMPOUNDS AS CYCLIN DEPENDENT KINASE INHIBITORS” (BeOne Medicines I GmbH, priority 2022, published 2026):

Tests used:
CDK6/Cyclin D3 = CDK6/Cyclin D3 (Homo sapiens, UniProt Q00534); experiment: inhibition of CDK6/Cyclin D3 kinase, TR-FRET; assay type: biochemical; details: CDK6/Cyclin D3, 1 mM ATP, 0.15 μM Rb (Ser780)-biotin substrate, pH 7.0, 60 min preincubation, 120 min reaction, room temperature; read-out: CDK6D3 IC50
Chain of CDK6/Cyclin D3 (Q00534 whole entry): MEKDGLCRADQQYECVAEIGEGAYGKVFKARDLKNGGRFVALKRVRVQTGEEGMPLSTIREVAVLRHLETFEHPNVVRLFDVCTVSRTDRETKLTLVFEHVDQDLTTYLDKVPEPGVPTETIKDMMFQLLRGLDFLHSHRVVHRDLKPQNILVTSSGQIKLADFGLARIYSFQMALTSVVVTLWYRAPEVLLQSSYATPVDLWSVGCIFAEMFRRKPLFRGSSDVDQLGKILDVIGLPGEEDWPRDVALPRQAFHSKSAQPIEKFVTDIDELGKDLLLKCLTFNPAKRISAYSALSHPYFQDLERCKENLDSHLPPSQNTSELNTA
Chain of CDK6/Cyclin D3 (P30281 whole entry partner): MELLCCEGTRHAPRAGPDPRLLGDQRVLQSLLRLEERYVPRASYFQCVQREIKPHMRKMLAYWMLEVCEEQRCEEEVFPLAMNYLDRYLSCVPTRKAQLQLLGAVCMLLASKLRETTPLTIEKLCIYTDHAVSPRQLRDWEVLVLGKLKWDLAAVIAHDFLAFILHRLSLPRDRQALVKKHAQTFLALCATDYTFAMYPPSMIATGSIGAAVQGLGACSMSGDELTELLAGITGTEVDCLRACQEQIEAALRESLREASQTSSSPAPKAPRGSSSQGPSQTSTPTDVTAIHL
Method: (§1) Compounds disclosed herein were tested for inhibition of CDK4/Cyclin D1 or CDK6/Cyclin D3 kinase in an assay based on the time-resolved fluorescence-resonance energy transfer (TR-FRET) methodology. The assay was carried out in 384-well low volume black plates in a reaction mixture containing CDK4/Cyclin D1 or CDK6/Cyclin D3, 1 mM ATP, 0.15 μM Rb (Ser780)-biotin substrate and 0-10 μM compound in buffer containing 50 mM HEPES pH7.0, 0.02% NaN3, 0.01% BSA, 0.1 mM Orthovanadate, 50 mM MgCl2, 1 mM DTT and 0.005% Tween-20. The kinase was incubated with compound for 60 minutes at room temperature and the reaction was initiated by the addition of ATP and Rb (Ser780)-biotin substrate. After reaction at room temperature for 120 minutes, an equal volume of stop/detection solution was added according to the manufacture's instruction (Cisbio Bioassays). The stop/detection solution contained Streptavidin-XL665 and Anti-pRb (Ser780) mAb-Eu Cryptate in Detection buffer (Cisbio Bioassays). Plates were incubated at room temperature for 60 minutes, and the TR-FRET signals (ex337 nm, em665 nm/620 nm) were recorded on a PHERAstar FSX plate reader (BMG Labtech). The inhibition percentage of CDK4/Cyclin D1 or CDK6/Cyclin D3 kinase activity in presence of increasing concentrations of compounds was calculated based on the ratio of fluorescence at 665 nm to that at 620 nm. The IC50 for each compound was derived from fitting the data to the four-parameter logistic equation by Dotmatics.

CDK4/Cyclin D1 = CDK4/Cyclin D1 (Homo sapiens, UniProt P11802); experiment: inhibition of CDK4/Cyclin D1 kinase, TR-FRET; assay type: biochemical; details: CDK4/Cyclin D1, 1 mM ATP, 0.15 μM Rb (Ser780)-biotin substrate, pH 7.0, 60 min preincubation, 120 min reaction, room temperature; read-out: CDK4D1 IC50
Chain of CDK4/Cyclin D1 (P11802 whole entry): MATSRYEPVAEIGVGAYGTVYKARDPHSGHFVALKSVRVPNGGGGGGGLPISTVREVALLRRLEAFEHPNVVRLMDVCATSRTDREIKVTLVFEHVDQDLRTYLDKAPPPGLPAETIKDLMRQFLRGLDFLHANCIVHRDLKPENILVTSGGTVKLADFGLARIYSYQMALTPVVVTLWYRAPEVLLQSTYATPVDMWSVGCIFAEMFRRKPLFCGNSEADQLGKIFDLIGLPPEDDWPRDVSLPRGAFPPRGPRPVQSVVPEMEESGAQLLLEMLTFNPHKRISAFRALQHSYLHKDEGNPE
Chain of CDK4/Cyclin D1 (P24385 whole entry partner): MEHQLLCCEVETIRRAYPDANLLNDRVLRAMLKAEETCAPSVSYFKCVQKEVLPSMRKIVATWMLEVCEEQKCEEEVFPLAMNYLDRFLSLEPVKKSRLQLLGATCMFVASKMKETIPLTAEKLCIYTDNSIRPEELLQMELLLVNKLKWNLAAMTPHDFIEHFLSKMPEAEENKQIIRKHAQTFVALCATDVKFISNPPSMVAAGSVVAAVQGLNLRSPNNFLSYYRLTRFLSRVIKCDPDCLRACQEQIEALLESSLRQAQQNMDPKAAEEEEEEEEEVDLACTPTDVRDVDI
Method: as §1

Row | Structure (SMILES) | IC50 (CDK6/Cyclin D3) | IC50 (CDK4/Cyclin D1)
1 | Cc1cc(C(C)(C)O)c2cc(-c3nc(N[C@@H]4CCOC[C@H]4O)ncc3F)cc(F)c2n1 [Example A3, (3S,4R)-4-((5-fluoro-4-(8-fluoro-4-(2-hydroxypropan-2-yl)-2-methylquinolin-6-yl)pyrimidin-2-yl)amino)tetrahydro-2H-pyran-3-ol] | 0.249 µM | 0.033 µM
2 | CC(C)(C)OC(=O)N1CCC(Nc2ncc(F)c(-c3cc(F)c4nccc(C(C)(C)O)c4c3)n2)CC1 [Example A4, tert-butyl 4-((5-fluoro-4-(8-fluoro-4-(2-hydroxypropan-2-yl)quinolin-6-yl)pyrimidin-2-yl)amino) piperidine-1-carboxylate] | 1.7 µM | 0.171 µM
3 | C[C@H](N)c1ccnc2c(F)cc(-c3nc(N[C@@H]4CCOC[C@H]4O)ncc3F)cc12 [Example A6, (3S,4R)-4-((4-(4-((S)-1-aminoethyl)-8-fluoroquinolin-6-yl)-5-fluoropyrimidin-2-yl)amino)tetrahydro-2H-pyran-3-ol] | 0.76 µM | 0.032 µM

Continued by falling IC50 (CDK6/Cyclin D3), values first:

Row | IC50 (CDK6/Cyclin D3) | IC50 (CDK4/Cyclin D1) | Structure (SMILES)
4 | 2.38 µM | 0.097 µM | C[C@@H](N)c1ccnc2c(F)cc(-c3nc(N[C@@H]4CCOC[C@H]4O)ncc3F)cc12 [Example A7, (3S,4R)-4-((4-(4-((R)-1-aminoethyl)-8-fluoroquinolin-6-yl)-5-fluoropyrimidin-2-yl)amino)tetrahydro-2H-pyran-3-ol]
5 | 0.688 µM | 0.122 µM | COC(=O)c1ccnc2c(F)cc(-c3nc(N[C@@H]4CCOC[C@H]4O)ncc3F)cc12 [Example A1, methyl 8-fluoro-6-(5-fluoro-2-(((3S,4R)-3-hydroxytetrahydro-2H-pyran-4-yl)amino)pyrimidin-4-yl) quinoline-4-carboxylate]
6 | 0.22 µM | 0.083 µM | CC(C)(O)c1ccnc2c(F)cc(-c3nc(NC4CCNCC4)ncc3F)cc12 [Example A5, 2-(8-fluoro-6-(5-fluoro-2-(piperidin-4-ylamino)pyrimidin-4-yl)quinolin-4-yl) propan-2-ol]
7 | 0.084 µM | 0.012 µM | CC(C)(O)c1ccnc2c(F)cc(-c3nc(N[C@@H]4CCOC[C@H]4O)ncc3F)cc12 [Example A2, (3S,4R)-4-((5-fluoro-4-(8-fluoro-4-(2-hydroxypropan-2-yl)quinolin-6-yl)pyrimidin-2-yl)amino)tetrahydro-2H-pyran-3-ol]
